{
  "source": "paper PMC6260619",
  "about": "“Selective Cytotoxicity of Goniothalamin against Hepatoblastoma HepG2 Cells” (Molecules, 2011)",
  "key": {"HepG2 cells [1]": {"tested_on": "HepG2 cells", "test": "MTT cytotoxicity assay, HepG2", "type": "cell-based, human", "conditions": "for IC50: read-out: IC50 from MTT", "description": "HepG2 and Chang cells were plated at 1 × 10^4 cells/well by adding 200 μL of a 5 × 10^4 cells/mL suspension to each well of a 96-well tissue culture plate. The plate was incubated for a sufficient time to assure attachment and 40% to 60% confluency. […] The last row was left as an untreated control. The plates were incubated at 37 °C, 5% CO2, for 24, 48 and 72 hours, respectively. After incubation with compounds, the media was aspirated off and replaced with fresh media. Then, MTT solution (20 μL) for a total volume of 200 μL was added in every well and incubated for 4 to 6 hours at 37 °C with 5% CO2. After that, MTT-containing medium was removed gently and replaced with DMSO (200 μL per well) to mix the formazan crystals until dissolved. The plates were read on microtiter plate reader at 570 nm. For each compound tested, the IC50 (concentration of drug needed to inhibit cell growth by 50%) is generated from the dose-response curves for each cell line."}, "Chang cells [2]": {"tested_on": "Chang cells", "test": "LDH leakage assay, Chang", "type": "cell-based, human", "conditions": "for IC50: read-out: IC50 from LDH", "description": "Measurement of LDH activity is another indicator of cell viability through evaluation of the cell membrane permeability. The enzyme activity is measured externally, as it leaks from dead cells which lose their membrane integrity. LDH leakage detection is based on the loss of NADH due to its oxidation to NAD^+, resulting in the conversion of pyruvate to lactate. Untreated cells should retain LDH in their cells and have minimal loss over the time of the assay. Triton X-100-treated cells that give the maximum loss of LDH were used as the positive control in this assay.\nTo determine the effect of goniothalamin on membrane permeability in HepG2 and Chang cell lines, a lactate dehydrogenase (LDH) release assay was used. The cells were seeded in 96-well culture plates at a density of 2 × 10^4 cells/well in 100 μL volume and allowed to grow for 18 hours before treatment. After treatment, the plates were incubated for 24, 48 and 72 hours, respectively. Then, the supernatant (40 μL) was transferred to a new 96 well to determine LDH release and 6% triton X-100 (40 μL) was added to the original plate for determination of total LDH. An aliquot of 0.1 M potassium phosphate buffer (100 μL, pH 7.5) containing 4.6 mM pyruvic acid was mixed to the supernatant using repeated pipetting. Then, 0.1 M potassium phosphate buffer (100 μL, pH 7.5) containing 0.4 mg/mL reduced β-NADH was added to the wells. The kinetic changes were read for 1 min using ELISA microplate reader in absorbance at wavelength 340 nm. This procedure was repeated with 40 μL of the total cell lysate to determine total LDH U/well. A change of 0.001 absorbance units/min is equivalent to 1 U/L of LDH activity. The percentage of LDH release was determined by dividing the LDH released into the media by the total LDH following cell lysis in the same well."}, "HepG2 cells [3]": {"tested_on": "HepG2 cells", "test": "BrdU cell proliferation ELISA, HepG2", "type": "cell-based, human", "description": "To further confirm the potential of goniothalamin-induced cell death HepG2 cells, a BrdU cell proliferation assay was performed. The cell proliferation percentage was measured by the incorporation of the thymidine analogue bromodeoxyuridine into DNA. In untreated HepG2, the absorbances (OD) at 450 nm wavelength were 1.445, 2.188 and 2.553 for 24, 48 and 72 hours, respectively. The cell proliferation rate was reduced in a concentration dependent manner after the addition of goniothalamin, compared to untreated control cells after all the times (Figure 3). […] Inhibition of DNA synthesis at the highest concentration (150 µM) is also time-dependent and is the most severe.\n(§1) To confirm anti-proliferative effects in goniothalamin-treated cells, BrdU cell proliferation kit was used. HepG2 and Chang cells were seeded at 1.5 × 10^5 cells/mL in a final volume of 100 μL in a 96-well culture dish and incubated overnight to allow the cells to adhere to the dish. Each sample was assayed in triplicate. Besides, the control samples include a blank (no cells) and background (cells without BrdU) was also prepared. […] Then, BrdU label (20 μL, diluted by 1/2,000 in media) was added to each well and incubated for 24 h at 37 °C. The media was discarded and replaced by fix/denaturing solution (200 μL). The plate was incubated for 30 min at room temperature. The fix/denaturing solution was removed by inverting the plate. Then, BrdU antibody (100 μL, diluted by 1/100 in dilution buffer) was added to each well and left for 1 hour at room temperature. The cells were washed 3 times with wash buffer. After that, secondary antibody (100 μL, anti-mouse IgG HRP conjugated) was added to each well for 30 min. The washing step was done three times with wash buffer and once with distilled water. The distilled water was removed and substrate solution (100 μL) was added to each well. The plate was left for 15 min at room temperature in the dark condition. Finally, stop solution (100 μL) was added to the wells and absorbance measured at 450–540 nm."}, "Chang cells [4]": {"tested_on": "Chang cells", "test": "BrdU cell proliferation ELISA, Chang", "type": "cell-based, human", "description": "The inhibition of goniothalamin on cellular DNA synthesis in Chang cells was also measured by BrdU incorporation.\nas §1"}, "Chang cells [5]": {"tested_on": "Chang cells", "test": "Trypan blue dye exclusion viable cell count, Chang", "type": "cell-based", "description": "As supported by MTT and LDH results, goniothalamin inhibited cell proliferation towards HepG2 in a time- and dose-dependent manner as shown in the BrdU incorporation ELISA method. The effects of goniothalamin on HepG2 and Chang cell growth were also analyzed by viable cell counts using trypan blue dye exclusion assay for 24, 48 and 72 hours after treatment with different doses of goniothalamin. […] The ratio between viable cell numbers in goniothalamin-treated cells and control cells was reported as the Viablity Index (VI, Figure 5A and Figure 5B).\nA half mL aliquot of cell suspension (obtained from treated and non-treated HepG2 and Chang cells), was mixed with 0.5 mL of 0.4% trypan blue dye and left for 5 min at room temperature). The cells were counted using the hemacytometer and the percentage of dead cells was determined."}},
  "note": "Where “and” joins values, the source holds several entries; their conditions need not be identical. Equal values may be shown once. Read-outs that look alike come from different tables or passages of the source.",
  "data": [
    {"smiles": "O=C1C=CC[C@H](/C=C/c2ccccc2)O1", "note": "[Goniothalamin, 5-hydroxy-7-phenylhepta-2,6-dienoic acid lactone]", "values": [
      {"measurement": "IC50", "setting": "HepG2 cells [1]; HepG2, 72 hours", "value": "4.6 µM and 4.63 µM"},
      {"measurement": "IC50", "setting": "HepG2 cells [1]; Homo sapiens, HepG2, 24 h", "value": 9.2, "unit": "µM"},
      {"measurement": "IC50", "setting": "HepG2 cells [1]; Homo sapiens, HepG2, 48 h", "value": 8.3, "unit": "µM"},
      {"measurement": "selectivity index (SI)", "setting": "HepG2 cells [1]; IC50 for normal cell line (Chang)/IC50 for cancerous cell line (HepG2), MTT, 72 hours", "value": 7.6},
      {"measurement": "IC50-GTN / IC50-Doxo", "setting": "HepG2 cells [1]; MTT, 72 hours, value fits HepG2 IC50s", "value": 4.4},
      {"measurement": "increase in LDH leakage", "setting": "Chang cells [2]; Chang, 4.7 µM, 72 hours", "value": 19, "unit": "%"},
      {"measurement": "loss of viability (LDH leakage)", "setting": "Chang cells [2]; Chang, 37.5 µM", "value": "≤ 52", "unit": "%"},
      {"measurement": "toxicity (LDH leakage)", "setting": "Chang cells [2]; Chang, 2.3, 4.7 or 9.4 µM, on completion of incubation", "value": "no significant toxicity"},
      {"measurement": "IC50", "setting": "Chang cells [2]; Chang, 72 hours", "value": 32.5, "unit": "µM"},
      {"measurement": "IC50", "setting": "Chang cells [2]; Homo sapiens, 24 h, Chang, 24 hours", "value": 69.6, "unit": "µM"},
      {"measurement": "IC50", "setting": "Chang cells [2]; Homo sapiens, 48 h, Chang, 48 hours", "value": 55.1, "unit": "µM"},
      {"measurement": "IC50", "setting": "Chang cells [2]; Homo sapiens, 72 h, Chang, 72 hours", "value": 32.5, "unit": "µM"},
      {"measurement": "OD value at 450 nm (BrdU incorporation)", "setting": "HepG2 cells [3]; HepG2, IC50 concentration, 24 hours, untreated 1.445", "value": 0.635},
      {"measurement": "OD value at 450 nm (BrdU incorporation)", "setting": "HepG2 cells [3]; HepG2, IC50 concentration, 72 hours, untreated 2.553", "value": 0.372},
      {"measurement": "cell proliferation as compared to control (BrdU)", "setting": "HepG2 cells [3]; HepG2, lowest concentration (2.3 µL as printed), 72 hours", "value": 19.8, "unit": "%"},
      {"measurement": "OD value at 450 nm (BrdU incorporation)", "setting": "HepG2 cells [3]; HepG2, lowest concentration, 72 hours, untreated 2.553", "value": 0.505},
      {"measurement": "percentage of cells incorporating BrdU in comparison with untreated cells", "setting": "Chang cells [4]; IC50, 24 hours", "value": 62.4, "unit": "%"},
      {"measurement": "percentage of cells incorporating BrdU in comparison with untreated cells", "setting": "Chang cells [4]; IC50, 72 hours", "value": 23.5, "unit": "%"},
      {"measurement": "decrease in cell proliferation compared to untreated cells (BrdU)", "setting": "Chang cells [4]; lowest concentration (2.3 µM), 72 hours", "value": 2, "unit": "%"},
      {"measurement": "cell proliferation retained (BrdU)", "setting": "Chang cells [4]; lowest concentration (2.3 µL as printed), 72 hours", "value": 97.6, "unit": "%"},
      {"measurement": "Viability Index", "setting": "Chang cells [5]; at IC50, 72 hours", "value": "62 ± 4.36", "unit": "%"},
      {"measurement": "cytotoxicity (cell count, trypan blue)", "setting": "Chang cells [5]; doses comparable to 2.3 µM", "value": "no obvious cytotoxicity"}
    ]}
  ]
}
